The values that follow are results of earlier work, collected in US20210213090A1, “COMPOSITIONS, USES AND METHODS FOR TREATMENT AND/OR PREVENTION OF ELEVATED CHOLESTEROL, HYPERCHOLESTEROLEMIA, AND CARDIOVASCULAR DISEASE” (Nutraceutical Holdings Inc., priority 2018, published 2021).

In the data set the test system is LDL-C / cholesterol. Conditions: human, in vivo.

Take `COC1=C(OC)C(=O)C(C/C=C(\C)CC/C=C(\C)CC/C=C(\C)CC/C=C(\C)CC/C=C(\C)CC/C=C(\C)CC/C=C(\C)CC/C=C(\C)CC/C=C(\C)CCC=C(C)C)=C(C)C1=O` [coenzyme Q10, ubiquinone]: the “effect of supplementation on statin-related muscle symptoms, in words” value is on record as “decreases statin-related mild-to-moderate muscle symptoms”.
